Experimental data published in PMC9525908, “α-Crystallin chaperone mimetic drugs inhibit lens γ-crystallin aggregation: Potential role for cataract prevention” (The Journal of Biological Chemistry, 2022).
Changes are numbered by the printed parent chain. Where two headings read alike, the source gives them in different places.

Tests used:
Type in all cases: biochemical
HγD = target: T1, HγD (Homo sapiens, UniProt P07320); test: Thermal aggregation (72 °C) turbidity assay, recombinant HγD; details: for Effect on HγD aggregation at low protein / Effect on HγD at 2.0 mg/ml and 20 min: 72 °C; for Effect on HγD at 2.0 mg/ml and 20 min / inhibition at 125 µM: 20 min; for inhibition at 125 µM: 75 μM protein, 125 μM or less inhibitor (1.7:1)
T1 construct: made in house; host or cells: E. coli BL21(DE3) pLysS, pET3d vector
T1 sequence (P07320 1-174): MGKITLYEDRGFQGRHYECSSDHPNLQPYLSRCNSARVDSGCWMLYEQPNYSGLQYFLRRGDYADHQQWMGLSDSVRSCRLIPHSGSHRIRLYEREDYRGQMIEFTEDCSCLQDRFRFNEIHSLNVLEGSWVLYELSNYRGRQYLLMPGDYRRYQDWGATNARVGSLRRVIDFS
Experimental: For refinement of the aforementioned screen, these compounds were tested at concentrations varying from 50 to 500 μM and 1.5 mg/ml concentration of recombinant HγD, human gamma S (HγS), its deamidation mutants γS_N14, γS_N76, γS_N143 and its triple mutant γSTM (Fig. 1F). In addition, other drugs and compounds that tested positive in the initial screen were also included, such as escin (E), hematein (I), citric acid (CA), docusate sodium (DS), and sennoside A (S) (Fig. S1B). […] For a review, see the study by Roskamp et al. ([38]). […] Thus, drug C and drug G emerged as the strongest antidenaturation/aggregation and potential anticataract drugs. For the mechanistic studies below these two compounds together with either drug M, chosen mostly as negative control, or the entire set of six compounds were used for comparison purpose, whereby the words “drug” or “compound” are used interchangeably in the studies later.
For end-point assays, HγD and MγS (1 mg/ml, 100 μl) in 50 mM K3PO4 buffer (pH 7.2) in set of triplicates in transparent flat bottom 96-well plates were heated at 72 °C for 20 min in the presence and absence of selected drugs at varying concentrations. Absorbance was measured at 600 nm with a SpectraMax iD5 (Molecular Devices).
HγD protein (2.5 mg/ml buffer A) was incubated at 72 °C for 20 min without or with 100 or 400 μM drug G or C in buffer A. Final DMSO concentration was 5% in all samples. […] Therefore, samples with and without 400 μM drug G were chosen for identification of drug G-induced miscleavage sites upon digestion with 25:1 protein:trypsin ratio (sequencing grade modified trypsin; Promega) in buffer A. After 4 h, samples were frozen at −80 °C until processed for determination of miscleavage sites using proteomics analysis. LC–MS/MS analysis was performed on an Orbitrap Eclipse mass spectrometer (Thermo Fisher Scientific) coupled with a Waters nanoAcquity UPLC system (Waters) in total 90 min run using a linear gradient range from 0 to 42% solvent B (0.1% formic acid in acetonitrile) versus solvent A (0.1% formic acid in water) at a flow rate of 300 nl/min. MS1 full mass spectra were acquired in the Orbitrap mass analyzer at the resolution of 120 K. MS/MS tandem mass spectra were generated in the ion trap mass analyzer by collision-induced dissociation of peptide ions at a normalized collision energy of 35%. The resulting MS/MS spectra were searched against human gamma D protein database using Mass Matrix software (MassMatrix, Inc) with the mass errors of 10 ppm and 0.8 Da for MS1 and MS/MS scans, respectively. The oxidation of methionine was set for variable modifications, and three miscleavages were allowed for the search.
Final DMSO concentration was 5% including in control samples. Microtiter plates were first incubated for 10 min at 72 °C and reincubated for 10 more min. Absorbance was measured at both 10 and 20 min total incubation time.

HγS_N14D = target: T2, HγS_N14D (Homo sapiens, UniProt P22914, N15D); test: Thermal aggregation (72 °C, 20 min) turbidity assay, HγS_N14D; details: read-out: % Suppression; for inhibition: HγS_N14D, 75 μM protein, 72 °C 20 min
T2 sequence (P22914 1-178 N15D): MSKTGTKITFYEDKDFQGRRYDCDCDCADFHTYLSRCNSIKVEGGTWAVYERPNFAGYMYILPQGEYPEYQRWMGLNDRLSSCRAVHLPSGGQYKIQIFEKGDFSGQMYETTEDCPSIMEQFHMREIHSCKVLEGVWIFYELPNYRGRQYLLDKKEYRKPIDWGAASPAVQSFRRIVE
Excerpt: (§1) For a review, see the study by Roskamp et al. ([38]). […] For the mechanistic studies below these two compounds together with either drug M, chosen mostly as negative control, or the entire set of six compounds were used for comparison purpose, whereby the words “drug” or “compound” are used interchangeably in the studies later.

HγS_N76D = target: T3, HγS_N76D (Homo sapiens, UniProt P22914, N77D); test: Thermal aggregation (72 °C, 20 min) turbidity assay, HγS_N76D; details: read-out: % Suppression; for inhibition: HγS_N76D, 75 μM protein, 72 °C 20 min
T3 sequence (P22914 1-178 N77D): T2 sequence (P22914 1-178 N15D) with D15N, N77D
Excerpt: as §1

HγS_N143D = target: T4, HγS_N143D (Homo sapiens, UniProt P22914, N144D); test: Thermal aggregation (72 °C, 20 min) turbidity assay, HγS_N143D; details: 20 min, read-out: % Suppression; for inhibition: HγS_N143D, 75 μM protein, 72 °C 20 min
T4 sequence (P22914 1-178 N144D): T2 sequence (P22914 1-178 N15D) with D15N, N144D
Excerpt: as §1

WT-MγS = target: T5, WT-MγS (Mus musculus, UniProt O35486); test: Dynamic light scattering, WT-MγS; details: 400 μM drug; for Suppression of aggregate formation, DLS temperature scan: WT-MγS, 30–90 °C
T5 construct: made in house; host or cells: E. coli BL21(DE3) pLysS, pET17b vector
T5 sequence (O35486 1-178): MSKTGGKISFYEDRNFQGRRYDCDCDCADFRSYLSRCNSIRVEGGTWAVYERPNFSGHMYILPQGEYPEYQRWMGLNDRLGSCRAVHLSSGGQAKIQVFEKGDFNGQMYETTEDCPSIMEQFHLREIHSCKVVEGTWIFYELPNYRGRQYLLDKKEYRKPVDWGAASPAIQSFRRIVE
Experimental: Efficacy of our selected drugs in preventing the formation of protein aggregates was measured by DLS. Measurements were performed on a Wyatt DynaPro Nanostar. For DLS temperature scan experiment, pure and filtered protein samples (1 mg/ml in 10 mM sodium phosphate buffer, pH 7.2) with and without drugs (400 μM) were analyzed by DLS over a temperature range of 30 to 90 °C. Multiple scans were run for every data point, and the results represent average of individual scans. DLS spectra were also recorded for the samples at the end point of turbidity assay.

[1] = read-out: % Suppression, HγD experiment 1, 72 °C 20 min
[2] = read-out: % Suppression, HγD experiment 2, 72 °C 20 min
[3] = HγD experiment 1, 72 °C 20 min, read-out: % Suppression
[4] = HγD experiment 2, 72 °C 20 min, read-out: % Suppression

SMILES	Effect on HγD aggregation at low protein (HγD; 400 μM drug)	Effect on HγD at 2.0 mg/ml and 20 min (HγD; 400 μM drug)	inhibition at 125 µM (HγD; [1]) [%]	inhibition at 125 µM (HγD; [2]) [%]	Turbidity suppression (HγD; HγD 2.5 mg/ml, 400 μM drug, 72 °C 20 min, 5% DMSO)	inhibition at 125 µM (HγS_N14D) [%]	inhibition at 125 µM (HγS_N76D) [%]	inhibition at 125 µM (HγS_N143D) [%]	Percent Mass Peak 1 (WT-MγS; WT-MγS 45 μM, 72 °C 20 min) [%]	Radius (nm) Peak 1 (WT-MγS; WT-MγS 45 μM, 72 °C 20 min) [nm]	Suppression of aggregate formation, DLS temperature scan (WT-MγS)	inhibition at 125 µM (HγD; [3]) [%]	inhibition at 125 µM (HγD; [4]) [%]	inhibition (HγS_N14D) [%]	inhibition (HγS_N76D) [%]	inhibition (HγS_N143D) [%]	Percent Mass Peak 2 (WT-MγS; WT-MγS 45 μM, 72 °C 20 min) [%]	Radius (nm) Peak 2 (WT-MγS; WT-MγS 45 μM, 72 °C 20 min) [nm]
CC(C)=CCC[C@]1(C)C=Cc2c(O)c3c(c(CC=C(C)C)c2O1)O[C@]12C(=C[C@@H]4C[C@H]1C(C)(C)O[C@@]2(C/C=C(/C)C(=O)O)C4=O)C3=O [drug G, Gambogic acid]	worsened HγD aggregation	no baseline change	69	75	markedly suppressed turbidity	73	55	48	100	77.9	strong suppressive effects	–	–	–	–	–	–	–
O=C(O)CCCCCCCCCCCC[C@@H]1C=CCC1 [drug M, Chaulmoogric acid]	–	–	–	–	–	–	–	–	1.4	622.0	no suppression	38	73	48	55	25	98.6	6200.7
COC(=O)/C=C/C(C)=C\C=C\C(C)=C\C=C\C=C(C)\C=C\C=C(C)\C=C\C(=O)O [drug B, Bixin]	–	–	–	–	–	–	–	–	–	–	mild suppressive effects	63	60	51	57	25	–	–
CC(C)=CCCC1(C)C=Cc2c(O)c3c(c(CC=C(C)C)c2O1)OC12C(=CC4CC1C(C)(C)OC2(C/C=C(/C)C(=O)O)C4O)C3=O (stereo not shown) [drug D, dihydrogambogic acid]	–	–	66	78	–	76	59	30	–	–	mild suppressive effects	–	–	–	–	–	–	–
Oc1c(Cl)cc(Cl)c(Cl)c1Cc1c(O)c(Cl)cc(Cl)c1Cl [drug X, Hexachlorophene]	–	–	–	–	–	60	60	50	–	–	mild suppressive effects	61	47	–	–	–	–	–
Cc1cc(C(C#N)c2ccc(Cl)cc2)c(Cl)cc1NC(=O)c1cc(I)cc(I)c1O (stereo not shown) [drug C, Closantel]	worsened HγD aggregation	no baseline change	65	73	–	77	70	52	100	86.6	strong suppressive effects	–	–	–	–	–	–	–
